Here are results for 21 compounds from patent US6620828B2, “Thiazole compounds and pharmaceutical compositions for inhibiting protein kinases and methods for their use” (Agouron Pharmaceuticals, Inc., priority 1999, dated 2003).

Assay [1] has as its target T1, phosphorylated VEGF-R2Δ50 (FLVK-P) (Homo sapiens, UniProt P35968, DEL940-989/E990V).
T1 construct: VEGF-R2Δ50 contains residues 806-939 and 990-1171; made in house; host or cells: baculovirus/insect cells
Kind of assay: VEGF-R2 coupled spectrophotometric (FLVK-P) assay. The note with it: for Ki: spectrophotometric assay; for FLVK-P % inhibition @ 50: at 50, concentration unit not printed (head nM); for inhibition at 1 µM: Table 3. The format is biochemical. The text has this: VEGF-R2 Construct for Assay: This construct determines the ability of a test compound to inhibit tyrosine kinase activity. A construct (VEGF-R2Δ50) of the cytosolic domain of human vascular endothelial growth factor receptor 2 (VEGF-R2) lacking the 50 central residues of the 68 residues of the kinase insert domain was expressed in a baculovirus/insect cell system. Of the 1356 residues of full-length VEGF-R2, VEGF-R2Δ50 contains residues 806-939 and 990-1171, and also one point mutation (E990V) within the kinase insert domain relative to wild-type VEGF-R2. Autophosphorylation of the purified construct was performed by incubation of the enzyme at a concentration of 4 μM in the presence of 3 mM ATP and 40 mM MgCl2 in 100 mM Hepes, pH 7.5, containing 5% glycerol and 5 mM DTT, at 4° C. for 2 h. […] See Parast et al., Biochemistry, 37, 16788-16801 (1998).
Coupled Spectrophotometric (FLVK-P) Assay
The production of ADP from ATP that accompanies phosphoryl transfer was coupled to oxidation of NADH using phosphoenolpyruvate (PEP) and a system having pyruvate kinase (PK) and lactic dehydrogenase (LDH). The oxidation of NADH was monitored by following the decrease of absorbance at 340 nm (e340=6.22 cm^−1 mM^−1) using a Beckman DU 650 spectrophotometer. Assay conditions for phosphorylated VEGF-R2Δ50 (indicated as FLVK-P in the tables below) were the following: 1 mM PEP; 250 μM NADH; 50 units of LDH/mL; 20 units of PK/mL; 5 mM DTT; 5.1 mM poly(E4Y1); 1 mM ATP; and 25 mM MgCl2 in 200 mM Hepes, pH 7.5. Assay conditions for unphosphorylated VEGF-R2Δ50 (indicated as FLVK in the tables) were the following: 1 mM PEP; 250 μM NADH; 50 units of LDH/mL; 20 units of PK/mL; 5 mM DTT; 20 mM poly(E4Y1); 3 mM ATP; and 60 mM MgCl2 and 2 mM MnCl2 in 200 mM Hepes, pH 7.5. Assays were initiated with 5 to 40 nM of enzyme. Ki values were determined by measuring enzyme activity in the presence of varying concentrations of test compounds. The data were analyzed using Enzyme Kinetic and Kaleidagraph software.

The subject of assay [2] is human umbilical vein endothelial cells (HUVEC). Kind of assay: HUVEC proliferation assay. The conditions noted are these: Homo sapiens, HUVEC. It is filed as cell-based. Put shortly: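 Exponentially growing HUVEC were serum-starved 24 h (F12K + 1% FBS), pre-treated 1 h with compound (0.1% DMSO final), then stimulated with 6 ng/ml VEGF. Proliferation was read 72 h later by MTT reduction (A595). IC50 came from seven 0.5-log concentrations in triplicate; screens gave % inhibition relative to VEGF-only and starved wells.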

Where a name gives a salt, the structure may show the parent alone.

T1 sequence (P35968 with tags, fused parts or gaps DEL940-989/E990V limits assumed): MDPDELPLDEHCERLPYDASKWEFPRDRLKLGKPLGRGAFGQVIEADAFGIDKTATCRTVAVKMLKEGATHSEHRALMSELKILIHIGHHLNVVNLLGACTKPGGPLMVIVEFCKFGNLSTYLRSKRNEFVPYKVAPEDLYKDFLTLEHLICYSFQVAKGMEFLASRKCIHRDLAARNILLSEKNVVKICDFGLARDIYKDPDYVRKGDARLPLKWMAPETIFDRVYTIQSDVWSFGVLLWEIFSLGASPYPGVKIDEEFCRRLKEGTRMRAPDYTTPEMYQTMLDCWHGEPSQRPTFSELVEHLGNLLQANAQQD

On to `COc1cc(Nc2nc(N)c(C3=NC(c4ccc(Br)cc4)CO3)s2)cc(OC)c1OC` (racemic) [I(12), (R/S)-5-[4-(4-Bromo-phenyl)-4,5-dihydro-oxazol-2-yl]-N^2-(3,4,5-trimethoxy-phenyl)-thiazole-2,4-diamine], for which the “FLVK-P % inhibition @ 20” value in assay [1] (Table 2, at 20 (head μM)) is 71% @.
As a reminder, the Ki is a measure of affinity in units of concentration, obtained from inhibition or displacement. A higher Ki goes with lower affinity. In assay [1] (Table 1), `COc1cc(Nc2nc(N)c(-c3nc(-c4cccc(NC(C)=O)c4)cs3)s2)cc(OC)c1OC` [D(1), N-{3-[4′-Amino-2′-(3,4,5-trimethoxy-phenylamino)-[2,5′]bithiazolyl-4-yl]-phenyl}acetamide] yielded a Ki of 46 nM.
In turn, `Nc1nc(NC(=O)c2ccccc2)sc1-c1nc(-c2cccc(NC(=O)c3cccc(Cl)c3)c2)no1` [F(7), N-{3-[5-(4-amino-2-benzoylamino-thiazol-5-yl)-[1,2,4]oxadiazol-3-yl]-phenyl}-3-chloro-benzamide] registered an inhibition constant (Ki) in assay [1] (Table 1) of 114 nM.
The same measure, in the same setting: for `COc1cc(Nc2nc(N)c(-c3nc(-c4cccc(NC(=O)c5cnc(C)s5)c4)cs3)s2)cc(OC)c1OC` [D(53), 2-Methyl-thiazole-5-carboxylic acid {3-[4′-amino-2′-(3,4,5-trimethoxy-phenylamino)-[2,5′]bithiazolyl-4-yl]-phenyl}-amide] the value was 2.5 nM.
Take `CCC(=O)Nc1nc(N)c(-c2nc(-c3cccc(NC(=O)c4cccc(Cl)c4)c3)no2)s1` [F(6), N-{3-[5-(4-Amino-2-propionylamino-thiazol-5-yl)-[1,2,4]oxadiazol-3-yl]-phenyl}-3-chloro-benzamide]: the “FLVK-P % inhibition @ 50” value in assay [1] (Table 1) stood at 34% @.
As for `COc1cc(Nc2nc(N)c(C3=NC(c4cccc(O)c4)CO3)s2)cc(OC)c1OC` (centres unmarked) [I(9), S-3-{2-[4-Amino-2-(3,4,5-trimethoxy-phenylamino)-thiazol-5-yl]-4,5-dihydro-oxazol-4-yl}-phenol], in assay [1] (Table 2), the inhibition constant (Ki) is 83 nM.
With `COCOc1cccc(-c2noc(-c3sc(Nc4cc(OC)c(OC)c(OC)c4)nc3N)n2)c1` [B(4), 5-[3-(3-Methoxymethoxy-phenyl)-[1,2,4]oxadiazol-5-yl]-N^2-(3,4,5-trimethoxy-phenyl)-thiazole-2,4-diamine], in assay [1] (Table 2), the affinity corresponds to a Ki of 200 nM.
In general, IC50 refers to the concentration at which inhibition is half-maximal. The low end stands for greater potency in that assay, the high end for weaker potency in that assay. Compound `CNC(=O)Nc1nc(N)c(-c2nc(-c3cccc(NC(=O)c4cccc(C)c4)c3)no2)s1` [F(8), N-(3-[5-[4-Amino-2-(3-methyl-ureido)-thiazol-5-yl]-[1,2,4]oxadiazol-3-yl}-phenyl)-3-methyl-benzamide] came in with an IC50 in assay [2] (Table 1) of 22 nM. In addition, the Ki in assay [1] (Table 1) was found to be 1.9 nM.
In assay [1] (Table 1), `COc1cc(Nc2nc(N)c(-c3nc(-c4cccc(NC(=O)c5ccnc(Cl)c5)c4)cs3)s2)cc(OC)c1OC` [D(55), N-{3-[4′-Amino-2′-(3,4,5-trimethoxy-phenylamino)-[2,5′]bithiazolyl-4 yl]-phenyl}-2-chloro-isonicotinamide] yielded an inhibition constant Ki of 6.3 nM.
Still for that read-out and setting: the figure for `COc1cc(Nc2nc(N)c(-c3nc(-c4cccc(NC(=O)c5ccc(C)c(C)c5)c4)cs3)s2)cc(OC)c1OC` [D(31), N-{3-[4′-Amino-2′-(3,4,5-trimethoxy-phenylamino)-[2,5′]bithiazolyl-4-yl]-phenyl}-3,4-dimethyl-benzamide] is 4.8 nM; for `COC(=O)Nc1nc(N)c(-c2nc(-c3cccc(NC(=O)c4ccc(Cl)s4)c3)cs2)s1` [F(3), (4′-Amino-4-{3-[(5-chloro-thiophene-2-carbonyl)-amino]-phenyl}-[2,5′]bithiazolyl-2′-yl)-carbamic acid methyl ester] it is 80 nM.
A word on the inhibition: it is the change of the read-out against control, counted positive when it falls. Read a high inhibition as a strong effect. In the case of `COc1cc(Nc2nc(N)c(C3=NC(c4ccc5ccccc5c4)CO3)s2)cc(OC)c1OC` (centres unmarked) [I(20)], the inhibition at 100 µM in assay [1] (Table 2, at 100 μM) was determined as 46%.
`COc1cc(Nc2nc(N)c(-c3nc(-c4cccc(NC(=O)c5cc(C)cc(C)c5)c4)no3)s2)cc(OC)c1OC` [D(56), N-(3-{5-[4-Amino-2-(3,4,5-trimethoxy-phenylamino)-thiazol-5-yl]-[1,2,4]oxadiazol-3-yl}-phenyl)-3,5-dimethyl-benzamide trifluoroacetate salt] returned an inhibition constant Ki in assay [1] (Table 1) of 0.81 nM.
The compound `COc1cc(Nc2nc(N)c(-c3nc(-c4cccc(NC(=O)c5ccccc5C)c4)no3)s2)cc(OC)c1OC` [D(57), N-(3-{5-[4-Amino-2-(3,4,5-trimethoxy-phenylamino)-thiazol-5-yl]-[1,2,4]oxadiazol-3-yl}-phenyl)-2-methyl-benzamide trifluoroacetate salt] yielded an inhibition constant (Ki) in assay [1] (Table 1) of 18 nM.
In turn, `N#Cc1cccc(Nc2nc(N)c(-c3nc(-c4cccc(NC(=O)c5cccc(Cl)c5)c4)no3)s2)c1` [D(78)] showed an inhibition at 1 µM in assay [1] of 9%.
For the compound `COc1cc(Nc2nc(N)c(-c3nc(-c4cccc(NS(=O)(=O)Cc5ccccc5)c4)cs3)s2)cc(OC)c1OC` [D(2), N-{3-[4′-Amino-2′-(3,4,5-trimethoxy-phenylamino)-[2,5′]bithiazolyl-4-yl]-phenyl}-C-phenyl-methanesulfonamide], the inhibition constant Ki in assay [1] (Table 1) is 98 nM.
The same measure, in the same setting: the figure for `COc1cc(Nc2nc(N)c(-c3nc(-c4cccc(NC(=O)c5cc(Cl)ccn5)c4)cs3)s2)cc(OC)c1OC` [D(11), 4-Chloro-pyridine-2-carboxylic acid {3-[4′-amino-2′-(3,4,5-trimethoxy-phenylamino)-[2,5′]bithiazolyl-4-yl]-phenyl}-amide] is 1.9 nM.
Take `COc1cc(Nc2nc(N)c(C3=NC(c4ccc(O)cc4)CO3)s2)cc(OC)c1OC` (centres unmarked) [I(11), S-4-{2-[4-Amino-2-(3,4,5-trimethoxy-phenylamino)-thiazol-5-yl]-4,5-dihydro-oxazol-4-yl}-phenol]: the inhibition constant (Ki) in assay [1] (Table 2) is 530 nM.
For the compound `Nc1nc(NC(=O)c2cccs2)sc1-c1nc(-c2cccc(NC(=O)c3cccc(Cl)c3)c2)no1` [F(5), Thiophene-2-carboxylic acid (4-amino-5-{3-[3-(3-chloro-benzoylamino)-phenyl]-[1,2,4]oxadiazol-5-yl}-thiazol-2-yl)-amide], in assay [1] (Table 1), the “FLVK-P % inhibition @ 50” value is reported as 31% @.
Consider `CC(C)(C)OC(=O)Nc1cccc(-c2noc(-c3sc(Nc4cccc(C#N)c4)nc3N)n2)c1` [B(40)], for which the inhibition at 1 µM in assay [1] is 31%.
For `COc1cc(Nc2nc(N)c(C3=N[C@@H](Cc4ccccc4)CO3)s2)cc(OC)c1OC` [I(1), S-5-(4-Benzyl-4,5-dihydro-oxazol-2-yl)-N^2-(3,4,5-trimethoxyl-pheny)-thiazole-2,4-diamine], in assay [2] (Table 2), the midpoint of inhibition, the IC50, lay at 61000 nM. Further, the Ki in assay [1] (Table 2) is greater than 100000 nM.
